The data set can be described thus: In man pharmacokinetics of oral NO-diclofenac sachets (plasma, LC/MS/MS). The class given is in vivo. The note with it: 75, 100 and 150 mg sachets of example 2, oral; 0.25-32 h. As to the method:
In man evaluation of pharmacokinetic and pharmacodynamic parameters of the oral NO-diclofenac formulation described in example 2 (sachets).
Six healthy fastened patients were administered with 75, 100 and 150 mg NO-Diclofenac sachets formulated as described in example 2.
In order to evaluate the pharmacokinetic parameters, blood samples were taken at 0.25, 0.5, 1, 2, 3, 4, 5, 6, 8, 10, 12, 16, 24 and 32 hours after administration of the pharmaceutical formulation. The active ingredient NO-diclofenac and its metabolites diclofenac and the hydroxyderivative 4-OH-diclofenac were dosed in plasma by a LC/MS/MS method, previously validated. NO-diclofenac was not found in the samples at any dosage. The pharmacokinetic parameters of plasma levels obtained for diclofenac (D) and the 4-hydroxydiclofenac (40H-Diclofenac, 40H-D) are reported in Table 2.

With `O=C(Cc1ccccc1Nc1c(Cl)cccc1Cl)OCCCCO[N+](=O)[O-]` [NO-diclofenac, 2-[(2,6-dichlorophenyl)amino]benzeneacetic acid 4-(nitrooxy)butyl ester], the “NO-diclofenac (unchanged) in plasma samples” value is on record as “not found”.
